Test results published in PMC11440465, “Detection of Sulfonamide Antibiotics Using an Elastic Hydrogel Microparticles-Based Optical Biosensor” (ACS Applied Materials & Interfaces, 2024).

Biological target: T1, Dihydropteroate synthase (DHPS) (Streptococcus pneumoniae, UniProt P05382)
T1 construct: gene sulA; dimer; immobilized on PEMA or POMA coated glass
Assay: competitive hydrogel microparticle (SCP) binding assay, RICM contact area
Details: DHPS immobilized on PEMA-coated glass; 0.1 M MOPS pH 6.0, 5 mM MgCl2, 600 uM pyrophosphate, room temperature; competes with SMX derivative on microparticles

T1 sequence (P05382 whole entry): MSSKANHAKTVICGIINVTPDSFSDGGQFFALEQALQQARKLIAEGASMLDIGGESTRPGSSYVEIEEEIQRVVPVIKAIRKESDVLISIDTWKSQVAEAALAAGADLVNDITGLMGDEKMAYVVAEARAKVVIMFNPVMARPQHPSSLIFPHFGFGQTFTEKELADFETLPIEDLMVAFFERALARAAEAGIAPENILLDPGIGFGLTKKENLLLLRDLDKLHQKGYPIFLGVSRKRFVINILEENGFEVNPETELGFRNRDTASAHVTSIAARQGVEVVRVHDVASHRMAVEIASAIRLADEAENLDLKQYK

With `Cc1cc(NS(=O)(=O)c2ccc(N)cc2)no1` [SMX, sulfamethoxazole] the “% decrease of SCP contact area diameter at 1 mM” value was over 50%.
